Reference: patent US20250188069A1, “COMPOUNDS AND METHODS FOR DEGRADING CASEIN KINASE 1 ALPHA” (PIN THERAPEUTICS, INC., priority 2022, published 2025)
Where a name gives a salt, the structure may show the parent alone. Read-outs that look alike come from different tables or passages of the source.

Tests used:
Type in all cases: cell-based
MV-4-11 cells = test: AML cell viability assay (RealTime-Glo); conditions: Homo sapiens, read-out: Cell viability classification
CK1α [1] = biological target: T1, CK1α (Homo sapiens, UniProt P48729+Q96SW2); test: CK1α degradation, Jess assay in MV-4-11 cells; set-up: CK1α levels were determined in MV-4-11 cells using Jess (Protein Simple); host or cells: MV-4-11; dose or concentration left out as unconfirmed; conditions: MV4-11, % reduction of CK1α compared to DMSO, MV-4-11 cells for 16 hours, normalized to β-actin, read-out: CK1α degradation classification
Procedure: MM.1S and NCCIT cells were obtained from ATCC and grown in RPMI-1640 supplemented with 10% FBS. MV-4-11 cells were obtained from ATCC and grown in IMDM supplemented with 10% FBS. The cells were maintained at 37° C. under 5% CO2.
Compounds of the present disclosure was added to cells (final DMSO concentration of 0.1%) and incubated for 16 hours. CK1α levels were determined in MV-4-11 cells using Jess (Protein Simple). Briefly, whole cell lysates were prepared in lysis buffer (1×RIPA buffer [Thermo, 89900], 2 mM MgCl2 [Sigma, M1028], 0.05% Benzonase [Sigma, E1014], 1× Pierce protease inhibitor tablets EDTA-free [Thermo, A32965]). 6-20 μg of the lysates were analyzed using Jess with antibodies against CK1α (Abcam, ab108296) and β-actin (R&D Systems, MAB8929). Protein levels were normalized to β-actin levels. DC50 values were obtained using four-parameter non-linear regressions using Prism (GraphPad).
The efficacy of CK1α degradation of a part of compounds of the present disclosure was determined by treating MV-4-11 cells at […] (final DMSO concentration of 0.1%) for 16 hours. CK1α levels were determined using Jess and normalized to β-actin levels. The compounds are classified based on amount of CK1α degradation (% reduction of CK1α compared to DMSO) as follows. • A: Degradation is greater than or equal to 75%; • B: Degradation is less than […] & greater than or equal to 50%; • C: Degradation is less than […]; • ND: not determined.

CK1α [2] = biological target: T1, CK1α; test: CK1α HiBiT assay in CK1a_HiBiT_Jurkat cells; conditions: DC50 class, 16 hours, Nano-Glo HiBiT Lytic Detection, read-out: CK1α degradation classification
Procedure: CK1a_HiBiT_Jurkat cells were culture in RPMI 1640 medium (Gibco, 11875093) with 10% FBS under standard tissue culture conditions. Briefly, Compounds of the present disclosure was added to 30,000 cells in a white 96-well plate (9-point dose response, top concentration […], half-log serial dilution, final DMSO concentration 0.5%) and incubated for 16 hours. CK1a level was determined in along with the Nano-Glo HiBiT Lytic Detection system [Promega N3050] with final concentration of 1 x. The luminescence was normalized to that of DMSO-treated samples. DC50 values were obtained using three-parameter non-linear regressions using Prism (GraphPad). The compounds are classified based on DC50 values as follows. • A: DC50 is less than or equal to 1×10^−7; • B: DC50 is greater than 1×10^−7 & less than or equal to 1×10^−6; • C: DC50 is greater than 1×10^−6; • NA: not calculated (no activity detected, <25% viability reduction at 1 uM)

[3] = MV4-11, IC50 class, MV-4-11 cells, RealTime-Glo after 44 hrs of treatment (TABLE 1)
[4] = MV4-11, IC50 class, MV-4-11 cells, RealTime-Glo after 44 hrs of treatment (TABLE 5)

T1 sequence (P48729 whole entry): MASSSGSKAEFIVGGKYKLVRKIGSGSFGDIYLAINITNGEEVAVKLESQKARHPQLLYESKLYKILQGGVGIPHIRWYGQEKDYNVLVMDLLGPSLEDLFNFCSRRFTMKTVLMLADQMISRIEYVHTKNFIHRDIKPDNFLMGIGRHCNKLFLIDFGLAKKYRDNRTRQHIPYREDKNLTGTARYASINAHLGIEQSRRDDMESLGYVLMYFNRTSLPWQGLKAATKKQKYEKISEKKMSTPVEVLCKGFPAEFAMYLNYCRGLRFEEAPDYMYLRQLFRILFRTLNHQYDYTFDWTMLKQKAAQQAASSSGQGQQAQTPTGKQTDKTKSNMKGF
T1 sequence (Q96SW2 whole entry): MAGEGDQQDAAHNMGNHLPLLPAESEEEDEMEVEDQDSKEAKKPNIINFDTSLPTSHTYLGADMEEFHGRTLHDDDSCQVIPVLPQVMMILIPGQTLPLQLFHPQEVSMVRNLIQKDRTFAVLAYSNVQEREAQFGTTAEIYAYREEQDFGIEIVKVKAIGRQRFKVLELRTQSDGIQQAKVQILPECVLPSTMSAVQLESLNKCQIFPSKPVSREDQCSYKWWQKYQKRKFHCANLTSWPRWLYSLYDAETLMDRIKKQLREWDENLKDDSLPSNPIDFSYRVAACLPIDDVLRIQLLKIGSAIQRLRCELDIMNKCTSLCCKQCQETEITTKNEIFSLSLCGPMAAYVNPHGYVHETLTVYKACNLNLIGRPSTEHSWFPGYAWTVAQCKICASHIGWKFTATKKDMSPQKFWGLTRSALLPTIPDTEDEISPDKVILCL
T1 sequence (Q16531 whole entry partner): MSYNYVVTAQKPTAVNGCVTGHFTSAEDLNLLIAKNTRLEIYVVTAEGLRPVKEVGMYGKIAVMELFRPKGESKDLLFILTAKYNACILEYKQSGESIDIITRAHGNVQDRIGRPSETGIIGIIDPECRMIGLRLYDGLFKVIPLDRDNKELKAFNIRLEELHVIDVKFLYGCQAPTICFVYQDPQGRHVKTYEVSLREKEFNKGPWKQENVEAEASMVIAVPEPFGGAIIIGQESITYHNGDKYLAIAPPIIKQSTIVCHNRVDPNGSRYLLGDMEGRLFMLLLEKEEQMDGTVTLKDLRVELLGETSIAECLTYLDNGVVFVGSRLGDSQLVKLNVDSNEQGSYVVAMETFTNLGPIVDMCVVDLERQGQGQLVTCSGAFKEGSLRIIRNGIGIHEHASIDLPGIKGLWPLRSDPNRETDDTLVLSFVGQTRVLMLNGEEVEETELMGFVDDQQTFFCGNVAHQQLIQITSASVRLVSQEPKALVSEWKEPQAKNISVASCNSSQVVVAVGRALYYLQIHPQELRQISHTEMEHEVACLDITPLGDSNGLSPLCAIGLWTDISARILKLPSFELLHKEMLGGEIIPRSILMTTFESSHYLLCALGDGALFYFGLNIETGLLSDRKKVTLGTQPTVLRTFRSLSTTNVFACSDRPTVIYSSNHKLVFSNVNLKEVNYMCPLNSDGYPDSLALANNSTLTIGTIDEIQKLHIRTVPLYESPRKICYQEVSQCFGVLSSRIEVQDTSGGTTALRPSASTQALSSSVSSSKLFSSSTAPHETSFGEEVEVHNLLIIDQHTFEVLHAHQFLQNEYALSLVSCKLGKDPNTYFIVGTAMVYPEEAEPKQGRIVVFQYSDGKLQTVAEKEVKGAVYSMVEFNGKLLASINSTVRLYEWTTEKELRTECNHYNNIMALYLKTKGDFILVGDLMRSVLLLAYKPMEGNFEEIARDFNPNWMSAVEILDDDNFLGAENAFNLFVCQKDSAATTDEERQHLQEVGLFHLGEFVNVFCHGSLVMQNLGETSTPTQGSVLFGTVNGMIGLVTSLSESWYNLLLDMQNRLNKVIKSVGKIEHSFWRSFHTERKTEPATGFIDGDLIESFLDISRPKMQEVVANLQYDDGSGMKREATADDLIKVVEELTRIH

Q: Which IC50 (MV-4-11 cells; [3]) does the source give for CCCN(CCCCN)c1cccc2c1CN(C1CCC(=O)NC1=O)C2=O (stereo not shown) [Compound 4, 3-(4-((4-aminobutyl)(propyl)amino)-1-oxoisoindolin-2-yl)piperidine-2,6-dione] here?
A: < 100 nM

Q: What about the Dmax (CK1α [1]) of the same compound?
A: > 75%

Q: With CCCCN(CCCCN)c1cccc2c1CN(C1CCC(=O)NC1=O)C2=O (stereo not shown) [Compound 46, 3-(4-((4-aminobutyl)(butyl)amino)-1-oxoisoindolin-2-yl)piperidine-2,6-dione] as the compound, how does the IC50 (MV-4-11 cells; [3]) read?
A: < 100 nM

Q: And the Dmax (CK1α [1])?
A: > 75%

Q: Which IC50 (MV-4-11 cells; MV4-11, 44 h) does the source give for CCCCCN(CCCCN)c1cccc2c1CN(C1CCC(=O)NC1=O)C2=O (stereo not shown) [Compound 47, 3-(4-((4-aminobutyl)(pentyl)amino)-1-oxoisoindolin-2-yl)piperidine-2,6-dione] here?
A: < 100 nM

Q: And the Dmax (CK1α [1])?
A: > 75%

Q: How did the IC50 (MV-4-11 cells; [3]) turn out when CCCCCCN(CCCCN)c1cccc2c1CN(C1CCC(=O)NC1=O)C2=O (stereo not shown) [Compound 48, 3-(4-((4-aminobutyl)(hexyl)amino)-1-oxoisoindolin-2-yl)piperidine-2,6-dione] was run?
A: < 100 nM

Q: What about the Dmax (CK1α [1]) of the same compound?
A: > 75%

Q: Which results are given for CCCN(CCCCNC(C)=O)c1cccc2c1CN(C1CCC(=O)NC1=O)C2=O (stereo not shown) [Compound 50, N-(4-((2-(2,6-dioxopiperidin-3-yl)-1-oxoisoindolin-4-yl)(propyl)amino)butyl)acetamide]?
A: IC50 (MV-4-11 cells; [3]): < 100 nM; Dmax (CK1α [1]): > 75%

Q: Which results are given for NCCCCN(CCCCCO)c1cccc2c1CN(C1CCC(=O)NC1=O)C2=O (stereo not shown) [Compound 51, 3-(4-((4-aminobutyl)(5-hydroxypentyl)amino)-1-oxoisoindolin-2-yl)piperidine-2,6-dione]?
A: IC50 (MV-4-11 cells; [3]): 100 to 1000 nM; Dmax (CK1α [1]): 50 to 7500%

Q: CC(C)CCCCCN(CCCCN)c1cccc2c1CN(C1CCC(=O)NC1=O)C2=O (stereo not shown) [Compound 52, 3-(4-((4-aminobutyl)(6-methylheptyl)amino)-1-oxoisoindolin-2-yl)piperidine-2,6-dione] was tested. Which IC50 (MV-4-11 cells; [3]) did it give?
A: 100 to 1000 nM

Q: What about the Dmax (CK1α [1]) of the same compound?
A: > 75%

Q: With NCCCCCN(CCCCN)c1cccc2c1CN(C1CCC(=O)NC1=O)C2=O (stereo not shown) [Compound 55, 3-(4-((4-aminobutyl)(5-aminopentyl)amino)-1-oxoisoindolin-2-yl)piperidine-2,6-dione dihydrochloride] as the compound, how does the IC50 (MV-4-11 cells; [3]) read?
A: 100 to 1000 nM

Q: And the Dmax (CK1α [1])?
A: > 75%

Q: NCCCCN(CCCCCCO)c1cccc2c1CN(C1CCC(=O)NC1=O)C2=O (stereo not shown) [Compound 56, 3-(4-((4-aminobutyl)(6-hydroxyhexyl)amino)-1-oxoisoindolin-2-yl)piperidine-2,6-dione] was tested. Which IC50 (MV-4-11 cells; [3]) did it give?
A: 100 to 1000 nM

Q: What about the Dmax (CK1α [1]) of the same compound?
A: 50 to 7500%

Q: Which IC50 (MV-4-11 cells; [3]) does the source give for CCCN(CCCCCN)c1cccc2c1CN(C1CCC(=O)NC1=O)C2=O (stereo not shown) [Compound 57, 3-(4-((5-aminopentyl)(propyl)amino)-1-oxoisoindolin-2-yl)piperidine-2,6-dione] here?
A: < 100 nM

Q: What about the Dmax (CK1α [1]) of the same compound?
A: > 75%

Q: Which IC50 (MV-4-11 cells; [3]) does the source give for NCCCCCCN(CCCCN)c1cccc2c1CN(C1CCC(=O)NC1=O)C2=O (stereo not shown) [Compound 60, 3-(4-((4-aminobutyl)(6-aminohexyl)amino)-1-oxoisoindolin-2-yl)piperidine-2,6-dione] here?
A: < 100 nM

Q: What about the Dmax (CK1α [1]) of the same compound?
A: > 75%

Q: What does the source list for CCCN(CCCCC(=O)NC)c1cccc2c1CN(C1CCC(=O)NC1=O)C2=O (stereo not shown) [Compound 63, 5-((2-(2,6-dioxopiperidin-3-yl)-1-oxoisoindolin-4-yl)(propyl)amino)-N-methylpentanamide]?
A: IC50 (MV-4-11 cells; [3]): < 100 nM; Dmax (CK1α [1]): > 75%

Q: With CCCCN(C/C=C/CN)c1cccc2c1CN(C1CCC(=O)NC1=O)C2=O (stereo not shown) [Compound 66, (E)-3-(4-((4-aminobut-2-en-1-yl)(butyl)amino)-1-oxoisoindolin-2-yl)piperidine-2,6-dione] as the compound, how does the IC50 (MV-4-11 cells; [3]) read?
A: 100 to 1000 nM

Q: What about the Dmax (CK1α [1]) of the same compound?
A: 50 to 7500%

Q: How did the IC50 (MV-4-11 cells; [3]) turn out when CCCCN(C/C=C\CN)c1cccc2c1CN(C1CCC(=O)NC1=O)C2=O (stereo not shown) [Compound 67, (Z)-3-(4-((4-aminobut-2-en-1-yl)(butyl)amino)-1-oxoisoindolin-2-yl)piperidine-2,6-dione] was run?
A: < 100 nM

Q: And the Dmax (CK1α [1])?
A: > 75%

Q: With C/C=C/CN(CCCCN)c1cccc2c1CN(C1CCC(=O)NC1=O)C2=O (stereo not shown) [Compound 68, (E)-3-(4-((4-aminobutyl)(but-2-en-1-yl)amino)-1-oxoisoindolin-2-yl)piperidine-2,6-dione] as the compound, how does the IC50 (MV-4-11 cells; [3]) read?
A: < 100 nM

Q: What about the Dmax (CK1α [1]) of the same compound?
A: > 75%

Q: Which IC50 (MV-4-11 cells; [3]) does the source give for C/C=C\CN(CCCCN)c1cccc2c1CN(C1CCC(=O)NC1=O)C2=O (stereo not shown) [Compound 69, (Z)-3-(4-((4-aminobutyl)(but-2-en-1-yl)amino)-1-oxoisoindolin-2-yl)piperidine-2,6-dione] here?
A: 100 to 1000 nM

Q: And the Dmax (CK1α [1])?
A: 50 to 7500%

Q: Which IC50 (MV-4-11 cells; [3]) does the source give for CCCCCN(CCCCNC)c1cccc2c1CN(C1CCC(=O)NC1=O)C2=O (stereo not shown) [Compound 80, 3-(4-((4-(methylamino)butyl)(pentyl)amino)-1-oxoisoindolin-2-yl)piperidine-2,6-dione.Hydrochloride] here?
A: < 100 nM

Q: What about the Dmax (CK1α [1]) of the same compound?
A: > 75%

Q: CCCCCN(CCCCNC(C)=O)c1cccc2c1CN(C1CCC(=O)NC1=O)C2=O (stereo not shown) [Compound 82, N-(4-((2-(2,6-dioxopiperidin-3-yl)-1-oxoisoindolin-4-yl)(pentyl)amino)butyl)acetamide] was tested. Which IC50 (MV-4-11 cells; [3]) did it give?
A: < 100 nM

Q: What about the Dmax (CK1α [1]) of the same compound?
A: 50 to 7500%

Q: CCCCCN(c1cccc2c1CN(C1CCC(=O)NC1=O)C2=O)[C@H]1CC[C@@H](N)CC1 (stereo partly drawn) [Compound 87, 3-(4-(((1S,4S)-4-aminocyclohexyl)(pentyl)amino)-1-oxoisoindolin-2-yl)piperidine-2,6-dione hydrochloride] was tested. Which IC50 (MV-4-11 cells; [3]) did it give?
A: < 100 nM

Q: And the Dmax (CK1α [1])?
A: > 75%

Q: For O=C1CCC(N2Cc3c(cccc3N(CCC3CC3)C3CCC(N[C@H]4C[C@@H]4C(F)(F)F)CC3)C2=O)C(=O)N1 (stereo partly drawn) [Compound 678, 3-(4-((2-cyclopropylethyl)(4-(((1S,2S)-2-(trifluoromethyl)cyclopropyl)amino)cyclohexyl)amino)-1-oxoisoindolin-2-yl)piperidine-2,6-dione Trifluoroacetate], which IC50 (MV-4-11 cells; [4]) is on record?
A: 100 to 1000 nM

Q: And the DC50 (CK1α [2])?
A: 100 to 1000 nM

Q: Which results are given for COCCN(C)[C@H]1CC[C@H](N(CCC2CC2)c2cccc3c2CN(C2CCC(=O)NC2=O)C3=O)CC1 (stereo partly shown) [Compound 680]?
A: IC50 (MV-4-11 cells; [4]): 100 to 1000 nM; DC50 (CK1α [2]): ≤ 100 nM

Q: What does the source list for CN(CCCC(F)(F)F)[C@H]1CC[C@H](N(CCC2CC2)c2cccc3c2CN(C2CCC(=O)NC2=O)C3=O)CC1 (stereo partly shown) [Compound 681, 3-{4-[(2-cyclopropylethyl)[(1r,4r)-4-[methyl(4,4,4-trifluorobutyl)amino]cyclohexyl]amino]-1-oxo-3H-isoindol-2-yl}piperidine-2,6-dione]?
A: IC50 (MV-4-11 cells; [4]): < 100 nM; DC50 (CK1α [2]): ≤ 100 nM

Q: CN(CCC(F)(F)F)[C@H]1CC[C@H](N(CCC2CC2)c2cccc3c2CN(C2CCC(=O)NC2=O)C3=O)CC1 (stereo partly shown) [Compound 682] was tested. Which IC50 (MV-4-11 cells; [4]) did it give?
A: < 100 nM

Q: And the DC50 (CK1α [2])?
A: ≤ 100 nM

Q: Which results are given for CN(CCC(F)F)[C@H]1CC[C@H](N(CCC2CC2)c2cccc3c2CN(C2CCC(=O)NC2=O)C3=O)CC1 (stereo partly shown) [Compound 683, 3-(4-((2-cyclopropylethyl)((1r,4r)-4-((3,3-difluoropropyl)(methyl)amino)cyclohexyl)amino)-1-oxoisoindolin-2-yl)piperidine-2,6-dione tris(2,2,2-trifluoroacetate)]?
A: IC50 (MV-4-11 cells; [4]): < 100 nM; DC50 (CK1α [2]): ≤ 100 nM

Q: Which IC50 (MV-4-11 cells; [4]) does the source give for O=C1CCC(N2Cc3c(cccc3N(CCC3CC3)C34CC(CNCCC(F)(F)F)(C3)C4)C2=O)C(=O)N1 (stereo not shown) [Compound 703, 3-{4-[(2-cyclopropylethyl)(3-{[(3,3,3-trifluoropropyl)amino]methyl}bicyclo[1.1.1]pentan-1-yl)amino]-1-oxo-3H-isoindol-2-yl}piperidine-2,6-dione] here?
A: 100 to 1000 nM

Q: And the DC50 (CK1α [2])?
A: ≤ 100 nM

Q: Which results are given for O=C1CCC(N2Cc3c(cccc3N(CCC3CC3)[C@H]3CC[C@H](N4CCC(F)(F)CC4)CC3)C2=O)C(=O)N1 (stereo partly shown) [Compound 716, 3-(4-((2-cyclopropylethyl)((1r,4r)-4-(4,4-difluoropiperidin-1-yl)cyclohexyl)amino)-1-oxoisoindolin-2-yl)piperidine-2,6-dione 2,2,2-trifluoroacetate]?
A: IC50 (MV-4-11 cells; [4]): 100 to 1000 nM; DC50 (CK1α [2]): ≤ 100 nM
